Where two headings read alike, the source gives them in different places. Bounds are passed on as bounds.

Experimental findings from US11174233B1, “Anti-cancer compounds having oxazolone derivation” (King Abdulaziz University, priority 2019, dated 2021) are described below.

Data set [1] deals with HL-60 leukemia cells. The data set is described as follows: CellTiter-Blue cell viability assay on HL-60. It is filed as cell-based. The conditions noted are these: Homo sapiens, HL-60 cells, 48 h. As to the method:
(§1) HL-60 were purchased from CLS Cell Line Service GmbH (Eppelheim, Germany) and cultured in Roswell Park Memorial Institute-1640 medium (RPMI-1640; Thermo Fisher Scientific, Inc; Waltham, Mass., USA) supplemented with 10% fetal bovine serum (FBS; Thermo Fisher Scientific) and ciprofloxacin (10 μg/mL; Cipla Limited; Mumbai, India), at 37° C. with 5% CO2 in a humidified incubator.
The CellTiter®-Blue Cell Viability assay was acquired from Promega Corporation (Madison, Wis., USA). Cell viability assay was performed as follows. The cells (10^4/well) were incubated with a concentration gradient of KIM-161C and KIM-241C ranging from 0.01 to 100 in 96-well plates for 48 h at 37° C. Subsequently, 20 μL CellTiter®-Blue Cell Viability reagent was added to each well and incubated for an additional 2 h for the development of fluorescence. The fluorescence emission was measured at 590 nm using the SpectraMax® i3× Multi-Mode microplate reader (Molecular Devices, LLC; San Jose, Calif., USA.) and plotted against drug concentrations to determine the mean inhibitory concentration of KIM-161C and KIM-241C producing 50% decrease in cell viability (IC50).

Data set [2] has as its system PC3 (prostate) cancer cells. Briefly: SRB cytotoxicity assay against PC3. Format: cell-based, human. The settings on record: Homo sapiens, 72 h treatment. The method, then:
(§2) MCF-7 (breast) and PC3 (prostate) cancer cells were each grown in RPMI-1640 medium supplemented with 10% heat inactivated FBS, 50 units/mL of penicillin, and […] of streptomycin. The cultures were maintained at 37° C. in a humidified atmosphere containing 5% CO2. The cells were maintained as “monolayer culture” by serial sub-culturing.
(§3) Cytotoxicity was determined using SRB method as previously described by Skehan et al. [Skehan P.; Storeng R.; Scudiero D.; Monks A.; McMahon J.; al., V. D. e., New colorimetric cytotoxicity assay for anticancer drug screening. […] Exponentially growing cells were collected using 0.25% Trypsin-EDTA and seeded in 96-well plates at 1000-2000 cells/well in RPMI-1640 supplemented medium. After 24 h, cells were incubated for 72 h with various concentrations of the tested compounds. Following 72 h treatment, the cells would be fixed with 10% trichloroacetic acid for 1 h at 4° C. Wells were stained for 10 min at room temperature with 0.4% SRB dissolved in 1% acetic acid. The plates were air dried for 24 h and the dye was solubilized with Tris-HCl for 5 min on a shaker at 1600 rpm. The optical density (OD) of each well was measured spectrophotometrically at 564 nm with an ELISA microplate reader (ChroMate-4300, FL, USA). The IC50 values were calculated according to the equation for Boltzman sigmoidal concentration—response curve using the nonlinear regression fitting models (Graph Pad, Prism Version 5).
For orientation: The SRB assay estimates cell density from bound dye.

In data set [3] the test system is MCF-7 (breast) cancer cells. The data set is described as follows: SRB cytotoxicity assay against MCF7. It is filed as cell-based, human. The conditions noted are these: Homo sapiens, 72 h treatment. As to the method:
as §2, §3

Data set [4] relates to HL-60 leukemia cells. Briefly: Apoptosis detection by caspase 3 activity in HL-60 cells. It is filed as cell-based, human. The method, then:
as §1
The caspase family of cysteine proteases are important regulators in the apoptosis. Caspase 3 belongs to the effector (caspase 3, 6 and 7) class of proteases and it is a key protease that is activated during early stages of apoptosis. […] The activated caspase 3 is a marker for cell apoptosis that proteolytically cleaves and activates other caspases and intracellular targets [Patel, T.; Gores, G. J.; Kaufmann, S. H., The role of proteases during apoptosis. FASEB journal: official publication of the Federation of American Societies for Experimental Biology 1996, 10 (5), 587-97].
FITC conjugated active caspase-3 antibody (BD biosciences, USA) was used to detect the active form of caspase 3 in the cells undergoing apoptosis. […] The collected cells were washed twice in cold 1×PBS and then re-suspended in a 0.5 mL BD Cytofix/Cytoperm solution followed by 20 min incubation on ice. After incubation, cells were washed twice in a BD Perm/Wash buffer (1×) and then labelled with 5 μL of FITC rabbit anti-caspase 3 antibodies. The labelled cells were washed again with wash buffer and re-suspended in a 0.5 mL buffer and analyzed by acquiring a minimum of 5000 events on the FACS Aria III cell analyzer and sorter.

Data set [5] deals with HL-60 leukemia cells. Briefly: Cell cycle analysis of Hoechst 33342 stained HL-60 cells by flow cytometry. It is filed as cell-based, human. The settings on record: 48 h. The method, then:
as §1
The cells (3.5×10^5) were incubated with two different concentrations of KIM-161C at 37° C. for 48 h. Subsequently, the cells were collected and washed twice with ice-cold PBS (1×). The washed cells were fixed on ice for 20 min using a fixation buffer containing paraformaldehyde. Hoechst 33342 (10 μg/mL; Thermo Fisher Scientific, Inc.) was used for staining. The cells were then incubated in the dark for 30 min on ice. A minimum total of 20,000 events were acquired using a BD FACSAria III flow cytometer. Flowlogic version 7.2.1 software (Inivai Technologies, Victoria, Australia) was used to obtain the percentages of cells in the G1, S, and G2/M phases in the singlet-gated population.
In general terms: A flow cytometer gives signals particle by particle.

For orientation: melting point means the temperature, or range, at which the solid turns liquid. Molecule `O=C(Cc1ccc(N2C(=O)/C(=C/c3ccco3)N=C2c2ccccc2)cc1)NCc1ccccc1` [KIM-241C, (Z)—N-benzyl-2-(4-(4-(furan-2-ylmethylene)-5-oxo-2-phenyl-4,5-dihydro-1H-imidazol-1-yl)phenyl)acetamide] gave a melting point of 199 to 200 °C. For the same molecule, the IC50 in the data set on HL-60 leukemia cells [1] (read-out: IC50 value, HL-60 cell viability (could not be obtained even at this concentration)) was more than 20000 nM. Moreover, the IC50 in data set [2] worked out at 243 nM. The IC50 in data set [3] was 145 nM.
For `COc1ccc(/C=C2\N=C(C)N(c3ccc(CC(=O)NCc4ccccc4)cc3)C2=O)cc1` [KIM-161C, (Z)—N-benzyl-2-(4-(4-(4-methoxybenzylidene)-2-methyl-5-oxo-4,5-dihydro-1H-imidazol-1-yl)phenyl)acetamide], the IC50 in the data set with HL-60 leukemia cells [1] (read-out: IC50 value, HL-60 cell viability) was determined as 262 nM; in data set [3] it was 3500 nM. Moreover, the “increase in the cells undergoing apoptosis as compared to the basal apoptosis” value in the data set on HL-60 leukemia cells [4] (362.5 nM, 24 h) is recorded as “more than 2 fold”; in the data set with HL-60 leukemia cells [4] (362.5 nM, 48 h), “more than 2 fold”; in the data set on HL-60 leukemia cells [4] (725 nM, 24 h), “more than 9.5 fold”; with HL-60 leukemia cells [4] (725 nM, 48 h) it was more than 8.45 fold. Also, the “cells in the G1 phase” value in the data set on HL-60 leukemia cells [5] (362.5 nM) is “increase”. Moreover, the “increase in the cells in G2/M stage as compared to the control” value in the data set with HL-60 leukemia cells [5] (725 nM) turned out to be 3 fold.
